Series [1] deals with Serine/threonine-protein kinase 24 (Homo sapiens) (UniProt Q9Y6E0). Put plainly: Selectivity interaction (KinomeScan (DiscoverX)) EUB0000666a STK24. The note with it: at 10 µM.
The target of series [2] is Dual specificity testis-specific protein kinase 1 (Homo sapiens) (UniProt Q15569). Put plainly: Selectivity interaction (KinomeScan (DiscoverX)) EUB0000229b TESK1. The note with it: at 10 µM.
Series [3] addresses T1, Casein kinase II subunit alpha (Homo sapiens, UniProt P68400). Put plainly: Selectivity interaction (KinomeScan (DiscoverX)) EUB0000229b CSNK2A1. The following applies: at 10 µM.
The subject of series [4] is Mast/stem cell growth factor receptor Kit (Homo sapiens), P10721 [V559D,T670I]. As to the kind of experiment: (§1) Selectivity interaction (KinomeScan (DiscoverX)) EUB0000229b KIT. The note with it: at 1 µM.
Series [5] deals with Mast/stem cell growth factor receptor Kit (Homo sapiens), P10721 [V559D]. The description is as §1. The note with it: at 1 µM.
The test system of series [6] is Mast/stem cell growth factor receptor Kit (Homo sapiens), P10721 [L576P]. The description is as §1. The note with it: at 1 µM.
The subject of series [7] is Mast/stem cell growth factor receptor Kit (Homo sapiens), P10721 [D816V]. Described as §1. The note with it: at 1 µM.
The target in series [8] is Mast/stem cell growth factor receptor Kit (Homo sapiens, UniProt P10721). Described as §1. The following applies: at 10 µM.
For series [9], the system named is Mast/stem cell growth factor receptor Kit (Homo sapiens), P10721 [V559D,V654A]. Described as §1. The note with it: at 1 µM.
In series [10] the test system is Mast/stem cell growth factor receptor Kit (Homo sapiens), P10721 [D816H]. The series is described as §1. The note with it: at 1 µM.
Series [11] concerns Mast/stem cell growth factor receptor Kit (Homo sapiens), P10721 [A829P]. The description is as §1. The following applies: at 1 µM.
In another series the target is hERG (KCNH2) (Homo sapiens, UniProt Q12809). Put plainly: Selectivity interaction (Panel of kinases, GPCRs, ion channels and transporters (enzymatic assay)) EUB0000266bCl KCNH2.
Series [12] has as its target Ribosomal protein S6 kinase alpha-1 (Homo sapiens, UniProt Q15418). Put plainly: Selectivity interaction (KinomeScan (DiscoverX)) EUB0001619a RPS6KA1. The note with it: at 1 µM.
For series [13], the target named is Calcium/calmodulin-dependent protein kinase type 1D (Homo sapiens) (UniProt Q8IU85). Put plainly: Selectivity interaction (KinomeScan (DiscoverX)) EUB0001619a CAMK1D. The note with it: at 1 µM.
The target of series [14] is T2, cGMP-dependent protein kinase 1 (Homo sapiens) (UniProt Q13976).
T2 sequence (whole entry): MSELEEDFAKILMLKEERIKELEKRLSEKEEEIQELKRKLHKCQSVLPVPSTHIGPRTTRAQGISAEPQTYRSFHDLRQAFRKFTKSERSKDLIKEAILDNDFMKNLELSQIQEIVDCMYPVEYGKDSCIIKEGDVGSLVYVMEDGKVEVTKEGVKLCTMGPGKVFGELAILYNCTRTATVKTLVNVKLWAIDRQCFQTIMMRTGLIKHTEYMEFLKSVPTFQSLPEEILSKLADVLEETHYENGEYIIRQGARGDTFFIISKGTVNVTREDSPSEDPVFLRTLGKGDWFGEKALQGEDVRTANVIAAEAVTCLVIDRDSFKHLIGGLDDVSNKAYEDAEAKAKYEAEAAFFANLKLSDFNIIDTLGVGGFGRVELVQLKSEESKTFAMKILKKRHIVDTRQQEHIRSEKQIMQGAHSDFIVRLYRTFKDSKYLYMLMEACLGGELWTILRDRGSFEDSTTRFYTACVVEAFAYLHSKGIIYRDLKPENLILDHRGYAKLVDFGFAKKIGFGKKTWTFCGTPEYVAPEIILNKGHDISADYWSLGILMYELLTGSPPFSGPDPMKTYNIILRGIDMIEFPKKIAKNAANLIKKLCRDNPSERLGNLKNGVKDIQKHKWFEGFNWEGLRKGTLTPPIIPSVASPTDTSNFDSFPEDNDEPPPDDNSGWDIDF
Put plainly: Selectivity interaction (Kinase panel (Invitrogen)) EUB0000639a PRKG1. The following applies: at 200 nM.

For series [15], the target named is Cyclin-dependent kinase 16 (Homo sapiens) (UniProt Q00536). As to the kind of experiment: Selectivity interaction (ActivX KiNativ screen (kinase selectivity in THP-1 cell lysates)) EUB0000639a CDK16. The class given is subcellular. The note with it: lysate, at 5 µM.
In series [16] the target is Hepatocyte growth factor receptor (Homo sapiens, UniProt P08581). Put plainly: Selectivity interaction (Kinase panel (Enzyme activity assay)) EUB0000612a MET.
Series [17] deals with T3, Tyrosine-protein kinase Tec (Homo sapiens) (UniProt P42680).
T3 sequence (whole entry): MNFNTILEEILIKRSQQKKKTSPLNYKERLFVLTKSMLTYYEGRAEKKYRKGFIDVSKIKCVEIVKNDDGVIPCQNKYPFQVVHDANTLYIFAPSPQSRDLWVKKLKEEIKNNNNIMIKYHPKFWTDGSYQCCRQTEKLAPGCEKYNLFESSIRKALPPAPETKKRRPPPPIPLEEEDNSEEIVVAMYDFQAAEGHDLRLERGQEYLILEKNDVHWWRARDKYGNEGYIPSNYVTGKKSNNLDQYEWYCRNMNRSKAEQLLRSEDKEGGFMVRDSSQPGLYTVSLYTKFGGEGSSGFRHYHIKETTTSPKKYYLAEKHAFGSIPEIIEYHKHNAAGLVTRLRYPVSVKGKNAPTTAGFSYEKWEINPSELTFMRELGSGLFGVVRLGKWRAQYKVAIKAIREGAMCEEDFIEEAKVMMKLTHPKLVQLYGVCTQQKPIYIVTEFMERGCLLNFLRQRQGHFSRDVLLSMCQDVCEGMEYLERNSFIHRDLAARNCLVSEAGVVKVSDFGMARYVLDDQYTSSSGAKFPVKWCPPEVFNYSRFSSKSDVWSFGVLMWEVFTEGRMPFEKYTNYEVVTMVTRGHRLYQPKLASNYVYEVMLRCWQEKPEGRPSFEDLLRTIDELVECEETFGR
Put plainly: Selectivity interaction (KinomeScan (DiscoverX)) EUB0000695a TEC. The following applies: at 100 nM.

For series [18], the target named is Serine/threonine-protein kinase MARK1 (Homo sapiens) (UniProt Q9P0L2). Put plainly: Selectivity interaction (ProQinase) EUB0000171b MARK1.
The target of series [19] is T1, Casein kinase II subunit alpha. As to the kind of experiment: Selectivity interaction (KinomeScan (DiscoverX)) EUB0000092b CSNK2A1. The following applies: at 10 µM.
The target in series [20] is Protein-tyrosine kinase 6 (Homo sapiens, UniProt Q13882). Put plainly: Selectivity interaction (KinomeScan (DiscoverX)) EUB0000045b PTK6.
Series [21] addresses NT-3 growth factor receptor (Homo sapiens, UniProt Q16288). Put plainly: Selectivity interaction (KinomeScan (DiscoverX)) EUB0000618a NTRK3. The note with it: at 10 µM.
The target of series [22] is Glycogen synthase kinase-3 alpha (Homo sapiens, UniProt P49840). Put plainly: Selectivity interaction (KinomeScan (DiscoverX)) EUB0000595a GSK3A. The following applies: at 10 µM.
Series [23] addresses Casein kinase I isoform gamma-2 (Homo sapiens) (UniProt P78368). The following applies: at 10 µM.
The target in series [24] is Protein arginine N-methyltransferase 3 (Homo sapiens, UniProt O60678). As to the kind of experiment: Selectivity interaction (Methyltransferase screen (radiometric assays, panel of 8 PRMTs, 21 protein lysine methyltransferases, 3 DNA methyltransferases, and one RNA methyltransferase)) EUB0000272b PRMT3.

Some results are limits rather than exact numbers.

Sequence of Protein-tyrosine kinase 6 (Q13882 whole entry, looked up): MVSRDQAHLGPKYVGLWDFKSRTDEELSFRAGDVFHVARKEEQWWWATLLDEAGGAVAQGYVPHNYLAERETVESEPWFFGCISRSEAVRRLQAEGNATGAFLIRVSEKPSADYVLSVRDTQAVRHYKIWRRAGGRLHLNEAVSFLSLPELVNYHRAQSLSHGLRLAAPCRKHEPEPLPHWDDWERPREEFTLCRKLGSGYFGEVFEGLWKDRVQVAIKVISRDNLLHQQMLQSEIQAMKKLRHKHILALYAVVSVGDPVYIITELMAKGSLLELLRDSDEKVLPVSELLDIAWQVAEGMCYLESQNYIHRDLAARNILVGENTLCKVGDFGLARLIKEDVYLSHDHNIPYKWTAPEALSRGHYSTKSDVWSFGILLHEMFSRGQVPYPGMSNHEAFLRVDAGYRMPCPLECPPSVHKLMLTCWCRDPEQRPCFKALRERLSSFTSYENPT
Sequence of Protein arginine N-methyltransferase 3 (O60678 2-531 limits assumed): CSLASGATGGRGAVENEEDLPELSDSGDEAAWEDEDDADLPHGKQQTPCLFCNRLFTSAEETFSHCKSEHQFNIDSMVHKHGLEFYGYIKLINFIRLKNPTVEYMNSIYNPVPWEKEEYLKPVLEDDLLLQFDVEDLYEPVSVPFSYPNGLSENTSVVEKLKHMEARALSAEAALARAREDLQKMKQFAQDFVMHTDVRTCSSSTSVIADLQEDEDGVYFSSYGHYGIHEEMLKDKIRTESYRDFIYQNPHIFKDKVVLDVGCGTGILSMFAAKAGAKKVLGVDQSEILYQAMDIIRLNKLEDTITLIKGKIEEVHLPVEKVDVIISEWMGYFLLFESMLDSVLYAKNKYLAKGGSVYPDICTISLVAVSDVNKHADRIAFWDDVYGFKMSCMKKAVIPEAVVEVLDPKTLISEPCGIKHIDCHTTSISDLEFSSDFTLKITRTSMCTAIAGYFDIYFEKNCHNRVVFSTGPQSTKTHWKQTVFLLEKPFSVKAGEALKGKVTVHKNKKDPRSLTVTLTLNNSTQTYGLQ
Sequence of Serine/threonine-protein kinase MARK1 (Homo sapiens) (Q9P0L2 whole entry, looked up): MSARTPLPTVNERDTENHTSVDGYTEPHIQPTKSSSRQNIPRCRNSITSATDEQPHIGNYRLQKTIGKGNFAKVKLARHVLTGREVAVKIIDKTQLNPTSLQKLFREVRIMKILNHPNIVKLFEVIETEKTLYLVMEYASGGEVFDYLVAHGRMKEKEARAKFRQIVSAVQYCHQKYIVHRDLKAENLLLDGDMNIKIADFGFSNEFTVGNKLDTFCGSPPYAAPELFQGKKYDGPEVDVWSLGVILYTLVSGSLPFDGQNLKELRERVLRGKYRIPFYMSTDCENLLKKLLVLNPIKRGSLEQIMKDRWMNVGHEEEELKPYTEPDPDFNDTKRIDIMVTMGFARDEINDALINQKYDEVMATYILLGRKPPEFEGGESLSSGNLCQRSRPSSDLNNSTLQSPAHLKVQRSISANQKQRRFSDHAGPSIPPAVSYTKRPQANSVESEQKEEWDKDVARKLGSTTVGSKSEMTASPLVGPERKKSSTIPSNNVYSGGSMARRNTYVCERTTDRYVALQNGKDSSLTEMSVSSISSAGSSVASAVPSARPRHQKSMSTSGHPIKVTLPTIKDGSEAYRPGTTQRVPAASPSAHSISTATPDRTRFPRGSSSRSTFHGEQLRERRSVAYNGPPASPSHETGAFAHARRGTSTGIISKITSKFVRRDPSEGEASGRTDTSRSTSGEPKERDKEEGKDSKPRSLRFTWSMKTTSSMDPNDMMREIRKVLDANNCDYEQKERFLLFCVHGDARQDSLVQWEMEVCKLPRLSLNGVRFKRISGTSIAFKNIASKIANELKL
T1 sequence (P68400 whole entry, looked up): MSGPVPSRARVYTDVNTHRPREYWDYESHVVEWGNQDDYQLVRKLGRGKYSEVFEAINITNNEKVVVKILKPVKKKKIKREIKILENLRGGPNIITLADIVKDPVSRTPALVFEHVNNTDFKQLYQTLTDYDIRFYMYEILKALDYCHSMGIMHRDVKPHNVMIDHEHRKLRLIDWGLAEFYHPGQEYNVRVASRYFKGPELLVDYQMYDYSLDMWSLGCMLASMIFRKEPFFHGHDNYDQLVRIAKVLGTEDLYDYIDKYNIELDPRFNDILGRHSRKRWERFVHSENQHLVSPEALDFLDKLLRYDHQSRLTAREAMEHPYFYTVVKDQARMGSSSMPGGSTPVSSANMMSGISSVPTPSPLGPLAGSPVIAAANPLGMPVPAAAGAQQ
Sequence of Serine/threonine-protein kinase 24 (Homo sapiens) (Q9Y6E0 whole entry, looked up): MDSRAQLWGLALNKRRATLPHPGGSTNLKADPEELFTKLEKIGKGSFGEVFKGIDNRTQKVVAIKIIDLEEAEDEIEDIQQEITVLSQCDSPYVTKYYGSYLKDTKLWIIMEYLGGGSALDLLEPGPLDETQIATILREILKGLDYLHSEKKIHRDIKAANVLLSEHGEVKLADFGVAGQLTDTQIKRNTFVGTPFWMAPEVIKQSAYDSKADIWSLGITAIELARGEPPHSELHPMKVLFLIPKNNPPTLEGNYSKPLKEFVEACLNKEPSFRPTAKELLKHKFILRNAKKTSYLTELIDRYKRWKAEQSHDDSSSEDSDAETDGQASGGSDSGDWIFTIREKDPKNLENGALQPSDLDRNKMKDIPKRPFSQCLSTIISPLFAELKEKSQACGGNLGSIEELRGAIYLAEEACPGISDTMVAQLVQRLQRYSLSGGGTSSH
Sequence of Mast/stem cell growth factor receptor Kit (Homo sapiens), P10721 [V559D] (P10721 whole entry V559D): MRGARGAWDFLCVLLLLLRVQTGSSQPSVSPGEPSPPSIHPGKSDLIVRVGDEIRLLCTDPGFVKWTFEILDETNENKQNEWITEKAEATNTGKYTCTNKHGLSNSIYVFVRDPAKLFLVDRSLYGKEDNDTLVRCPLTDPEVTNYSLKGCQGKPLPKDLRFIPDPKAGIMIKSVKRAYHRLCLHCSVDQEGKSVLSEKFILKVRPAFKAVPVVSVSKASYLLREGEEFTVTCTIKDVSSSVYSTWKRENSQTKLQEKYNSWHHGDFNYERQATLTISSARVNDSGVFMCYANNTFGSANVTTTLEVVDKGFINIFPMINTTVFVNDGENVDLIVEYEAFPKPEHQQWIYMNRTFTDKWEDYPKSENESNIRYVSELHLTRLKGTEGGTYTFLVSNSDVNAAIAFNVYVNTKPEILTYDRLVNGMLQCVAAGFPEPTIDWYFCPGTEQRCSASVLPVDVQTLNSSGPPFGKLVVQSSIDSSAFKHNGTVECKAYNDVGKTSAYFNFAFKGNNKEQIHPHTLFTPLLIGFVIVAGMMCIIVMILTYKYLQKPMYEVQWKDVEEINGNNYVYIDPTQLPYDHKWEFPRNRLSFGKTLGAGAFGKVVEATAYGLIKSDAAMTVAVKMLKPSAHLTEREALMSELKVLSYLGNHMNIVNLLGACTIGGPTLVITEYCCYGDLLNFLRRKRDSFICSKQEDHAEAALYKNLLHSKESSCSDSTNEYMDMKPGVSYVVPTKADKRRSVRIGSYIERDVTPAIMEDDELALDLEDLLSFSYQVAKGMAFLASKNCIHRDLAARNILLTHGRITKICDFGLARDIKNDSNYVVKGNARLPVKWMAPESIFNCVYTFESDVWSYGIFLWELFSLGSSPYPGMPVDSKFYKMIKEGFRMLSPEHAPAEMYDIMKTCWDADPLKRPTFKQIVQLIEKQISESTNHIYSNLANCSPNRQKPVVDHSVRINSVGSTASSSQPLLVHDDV
Sequence of Calcium/calmodulin-dependent protein kinase type 1D (Homo sapiens) (Q8IU85 whole entry, looked up): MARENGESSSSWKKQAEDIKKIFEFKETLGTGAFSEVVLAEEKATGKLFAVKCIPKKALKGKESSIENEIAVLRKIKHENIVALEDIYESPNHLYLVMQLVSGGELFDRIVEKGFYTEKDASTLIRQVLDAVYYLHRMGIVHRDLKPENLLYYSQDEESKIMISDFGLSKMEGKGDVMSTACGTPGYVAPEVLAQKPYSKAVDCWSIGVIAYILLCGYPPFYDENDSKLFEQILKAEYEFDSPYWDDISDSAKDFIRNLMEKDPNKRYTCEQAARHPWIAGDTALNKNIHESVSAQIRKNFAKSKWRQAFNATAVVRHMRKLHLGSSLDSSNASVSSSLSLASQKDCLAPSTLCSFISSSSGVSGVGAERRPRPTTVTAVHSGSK
Sequence of Mast/stem cell growth factor receptor Kit (Homo sapiens), P10721 [D816H] (P10721 whole entry D816H): as the sequence (P10721 whole entry V559D) above, with D559V, D816H counted along it

The compound `O=C(NOC[C@H](O)CO)c1ccc(F)c(F)c1Nc1ccc(I)cc1F` yielded a % of control in series [1] of 88%.

In the case of `COc1cc(N(C)c2ccnc3ccc(C(F)(F)F)cc23)cc(OC)c1OC`, the % binding in series [2] was 90%; in series [3], 67%; in series [4], 94%; in series [5], 95%; in series [6], 100%; in series [7] it was 95%. In addition, the % binding came out at 84% in [8], 100% in series [9], 79% in series [10] and 72% in series [11].

For the compound `CCn1c(-c2nc3cc(C(=O)N4CCCC(N)C4)ccc3n2C)cc2ccccc21` (stereo not drawn), on hERG (KCNH2), the XC50 was 6.31 µM.

For the compound `N#Cc1cccc(-c2c[nH]c3ncnc(N4CCOCC4)c23)c1`, the % of control in series [12] turned out to be 27%; in series [13] it was 88%.

On to `CC[C@@H]1[C@H](F)C(=O)N[C@@H]1COc1nccc2cc(C(N)=O)c(OC)cc12` [ZIMLOVISERTIB], for which the % of inhibition in series [14] was 8.62%; in [15], 41.7%.

Compound `CCc1cccc(CC)c1NC(=O)c1nn(C)c2c1CCc1cnc(Nc3ccc(C(=O)NC4CCN(C)CC4)cc3OC(F)(F)F)nc1-2` displayed an IC50 in [16] greater than 10 µM.

For the compound `Cc1cc(F)c(C(=O)Nc2cccc(-c3nncn3C(C)C)n2)cc1-n1cnc(C2CC2)c1`, in series [17], the % of control came out at 100%.

`C=CC(=O)Nc1cccc(C(=O)Nc2ccc(Nc3cc(-c4[nH]c(SC)nc4C)ccn3)cc2)c1`: the % of control in series [18] (at 1 µM) was determined as 100%; in series [18] (at 5 µM), 88%.

As to `CCC(=O)N1CCN(c2ccc(-n3c(=O)ccc4cnc5ccc(-c6cnc7ccccc7c6)cc5c43)cc2C(F)(F)F)CC1`, the % of control in series [19] was determined as 94%.

Regarding `C=CC(=O)Nc1cc(-n2c(=O)ccc3cnc4ccc(-c5ccc(NS(C)(=O)=O)cc5)cc4c32)ccc1C`, the % of control was 100% in [20] (at 1 µM) and 77% in [20] (at 10 µM).

Compound `O[C@H]1CC[C@H](Nc2ncc3nc(Nc4c(F)cc(F)cc4F)n([C@H]4CCOC4)c3n2)CC1` showed a % of control in series [21] of 100%.

Consider `COCC(=O)NC/C=C/c1ccc2ncnc(Nc3ccc(Oc4ccc(C)nc4)c(C)c3)c2c1` [CP-724714], for which the % of control in series [22] and in [23] was 100% throughout.

As for `Cc1cc(C)cc([C@H]2c3cc(C)ccc3NC(=O)CN2C(=O)c2ccc(Br)s2)c1`, the % of activity in series [24] (at 1 µM) and in series [24] (at 10 µM) was 102% each time.

Source of the values: ChEMBL document CHEMBL5465560, “Selectivity Literature for EUbOPEN Chemogenomic Library” (2024).
